The text below walks through data of paper PMC6659393, “A New Use for an Old Drug: Carmofur Attenuates Lipopolysaccharide (LPS)-Induced Acute Lung Injury via Inhibition of FAAH and NAAA Activities” (Frontiers in Pharmacology, 2019).

Assay [1] deals with T1, N-acylethanolamine acid amidase (NAAA) (Rattus norvegicus, UniProt Q5KTC7).
T1 construct: rat NAAA overexpressed in HEK293 cells (HEK293-rNAAA), crude protein
T1 sequence (Q5KTC7 34-130): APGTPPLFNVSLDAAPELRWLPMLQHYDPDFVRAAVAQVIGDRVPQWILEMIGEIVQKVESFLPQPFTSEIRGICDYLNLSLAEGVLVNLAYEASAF
T1 sequence (Q5KTC7 131-362): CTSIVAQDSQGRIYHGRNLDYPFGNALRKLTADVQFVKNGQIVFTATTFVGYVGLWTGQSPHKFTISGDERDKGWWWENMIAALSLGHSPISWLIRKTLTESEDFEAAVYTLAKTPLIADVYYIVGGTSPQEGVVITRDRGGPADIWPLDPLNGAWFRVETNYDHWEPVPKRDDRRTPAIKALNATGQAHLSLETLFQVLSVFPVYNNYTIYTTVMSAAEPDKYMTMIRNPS
Description: C17:[…] FAE hydrolysis by HPLC-MS in crude protein of carmofur-treated HEK293-rNAAA cells; dialysis reversibility test. The assay is classed as cell-based.

The target of assay [2] is T2, fatty acid amide hydrolase (FAAH) (Rattus norvegicus, UniProt P97612).
T2 construct: rat FAAH overexpressed in HEK293 cells (HEK293-rFAAH), crude protein
T2 sequence (P97612 1-579): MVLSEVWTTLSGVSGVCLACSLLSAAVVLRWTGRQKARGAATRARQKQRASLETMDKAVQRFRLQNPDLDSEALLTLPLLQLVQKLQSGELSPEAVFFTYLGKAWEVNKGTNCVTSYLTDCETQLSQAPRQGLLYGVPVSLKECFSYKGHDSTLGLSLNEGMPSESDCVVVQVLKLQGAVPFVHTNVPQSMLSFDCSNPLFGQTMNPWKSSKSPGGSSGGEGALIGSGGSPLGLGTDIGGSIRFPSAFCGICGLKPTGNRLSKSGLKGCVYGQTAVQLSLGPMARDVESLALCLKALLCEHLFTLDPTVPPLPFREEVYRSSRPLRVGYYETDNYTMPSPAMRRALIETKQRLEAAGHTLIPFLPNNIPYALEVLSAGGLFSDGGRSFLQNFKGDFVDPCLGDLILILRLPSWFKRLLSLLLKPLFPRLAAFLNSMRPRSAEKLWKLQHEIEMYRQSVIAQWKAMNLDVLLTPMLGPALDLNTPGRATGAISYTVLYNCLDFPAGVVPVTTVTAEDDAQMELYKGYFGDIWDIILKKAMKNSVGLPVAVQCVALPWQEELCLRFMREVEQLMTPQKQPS
Description: AEA hydrolysis by HPLC-MS in crude protein of carmofur-treated HEK293-rFAAH cells; dialysis reversibility test. Format: cell-based.

A word on the IC50: it is the concentration that inhibits the measured activity by half. Regarding `CCCCCCNC(=O)n1cc(F)c(=O)[nH]c1=O` [carmofur], the IC50 in assay [1] was determined as 710 ± 54 nM; in assay [2] it was 110 ± 25 nM.
